Source: patent US20080161232A1, “C5a Receptor Antagonist” (JERINI AG, priority 2005, published 2008)
Starred links: 1 amine or outer side, 2 acyl side, 3 side chain; linkers in the order of their positions; H or OH if unused. Positions of bridges follow the written chain, without caps; N, C: chain ends. Non-standard residues stand in square brackets, D forms with d. Residues, ends and D or L forms follow the SMILES beside them. *: point of attachment. Ala(1-amidino-4-piperidyl) = N=C(N)N1CCC(C[C@H](N)C(=O)O)CC1; Phe(3,4-Cl2) = N[C@@H](Cc1ccc(Cl)c(Cl)c1)C(=O)O; Phe(3-Cl) = N[C@@H](Cc1cccc(Cl)c1)C(=O)O; Phe(4-F) = N[C@@H](Cc1ccc(F)cc1)C(=O)O; X5 = CCN(CC)CCC[C@H](N[*:1])C(=O)[*:2]; 1Nal = N[C@@H](Cc1cccc2ccccc12)C(=O)O; 2Nal = N[C@@H](Cc1ccc2ccccc2c1)C(=O)O; Phe(2-F) = N[C@@H](Cc1ccccc1F)C(=O)O; Bta = N[C@@H](Cc1csc2ccccc12)C(=O)O; Hyp = O=C(O)[C@@H]1C[C@@H](O)CN1; d(hLeu) = CC(C)CC[C@@H](N)C(=O)O; hCit = NC(=O)NCCCC[C@H](N)C(=O)O; 2Pal = N[C@@H](Cc1ccccn1)C(=O)O; Cha = N[C@@H](CC1CCCCC1)C(=O)O; Cit = NC(=O)NCCC[C@H](N)C(=O)O; dCha = N[C@H](CC1CCCCC1)C(=O)O; Butoxycarbonyl = CCCCOC(=O)*; NMeS = CN[C@@H](CO)C(=O)O; Nle = CCCC[C@H](N)C(=O)O; Orn = NCCC[C@H](N)C(=O)O; Aze = O=C(O)[C@@H]1CCN1; Dab = NCC[C@H](N)C(=O)O; tBu = CC(C)(C)*

Target: T1, human C5aR(CD88) (Homo sapiens, UniProt P21730)
T1 construct: expressed in transfected cells; host or cells: rat basophilic leukemia cells (RBL)
T1 sequence (P21730 1-350): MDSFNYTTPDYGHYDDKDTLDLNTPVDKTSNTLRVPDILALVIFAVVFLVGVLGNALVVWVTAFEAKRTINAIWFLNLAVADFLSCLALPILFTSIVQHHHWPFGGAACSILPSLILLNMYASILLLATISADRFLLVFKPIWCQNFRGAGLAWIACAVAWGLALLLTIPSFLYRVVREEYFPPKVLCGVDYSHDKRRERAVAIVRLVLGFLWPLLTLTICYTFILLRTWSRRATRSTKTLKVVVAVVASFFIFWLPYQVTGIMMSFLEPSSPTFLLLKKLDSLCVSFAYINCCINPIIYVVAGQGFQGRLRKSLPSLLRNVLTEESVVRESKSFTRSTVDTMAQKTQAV
Assay: Determination of the IC50 value in an enzyme release assay (functional assay, antagonistic activity)
Format: cell-based
Conditions: for IC50: antagonistic activity, IC50 group in enzyme release assay, RBL cells expressing human C5aR(CD88), read-out: activity (group); for inhibitory activity (in words): functional assay of example 11, noteworthy = IC50 less than 200 nM

IC50	inhibitory activity (in words)	inhibitory activity (in words) (listed as Ac-Phe-[Orn-Pro-cha-Trp-Ebd])	Compound
20 to 50 nM	without significant loss of activity	noteworthy inhibitory activity	CCSC[C@@H]1NC(=O)[C@H](Cc2c[nH]c3ccccc23)NC(=O)[C@@H](CC2CCCCC2)NC(=O)[C@@H]2CCCN2C(=O)[C@@H](NC(=O)[C@H](Cc2ccccc2)NC(C)=O)CCCNC1=O [Compound 34, Ac-Phe-[Orn-Pro-cha-Trp-Ebd]] (Ac-F[Orn]P[dCha]WC(Et); lactam 2-C)
200 to 2000 nM	–	–	CC(=O)N[C@@H](Cc1ccccc1)C(=O)N[C@@H](CCCN)C(=O)N[C@@H](CO)C(=O)N[C@H](CC1CCCCC1)C(=O)N[C@@H](Cc1c[nH]c2ccccc12)C(=O)N[C@@H](Cc1ccccc1)C(=O)O [Compound 117, Ac-Phe-Orn-Ser-cha-Trp-Phe-OH] (Ac-F[Orn]S[dCha]WF-OH)
> 2000 nM	–	–	CC(=O)N[C@@H](Cc1ccccc1)C(=O)N[C@H]1CCCNC(=O)[C@H](CC2CCN(C(=N)N)CC2)NC(=O)[C@H](Cc2c[nH]c3ccccc23)NC(=O)[C@@H](CC2CCCCC2)NC(=O)[C@@H]2CCCN2C1=O [compound 30] (Ac-F[Orn]P[dCha]W[Ala(1-amidino-4-piperidyl)]; lactam 2-C)
> 2000 nM	–	–	CC(=O)N[C@@H](Cc1ccccc1)C(=O)N[C@H]1CCCNC(=O)[C@H](C)NC(=O)[C@H](Cc2c[nH]c3ccccc23)NC(=O)[C@@H](CC2CCCCC2)NC(=O)[C@@H]2CCCN2C1=O [Compound 39] (Ac-F[Orn]P[dCha]WA; lactam 2-C)
50 to 200 nM	–	–	CC(=O)N[C@@H](Cc1ccccc1)C(=O)N[C@@H](CCCNC(N)=O)C(=O)N[C@@H](CO)C(=O)N[C@H](CCC(C)C)C(=O)N[C@@H](Cc1csc2ccccc12)C(=O)N[C@@H](Cc1ccccc1)C(N)=O [Compound 212, Ac-Phe-Cit-Ser-hle-Bta-Phe-NH2] (Ac-F[Cit]S[d(hLeu)][Bta]F-NH2)
50 to 200 nM	–	–	CC(=O)N[C@@H](Cc1ccccc1)C(=O)N[C@@H](CCCN)C(=O)N1CCC[C@H]1C(=O)N[C@H](CCC(C)C)C(=O)N[C@@H](Cc1cccc(Cl)c1)C(=O)N[C@@H](Cc1ccc2ccccc2c1)C(N)=O [Compound 288, Ac-Phe-Orn-Pro-hle-Mcf-2Ni—NH2] (Ac-F[Orn]P[d(hLeu)][Phe(3-Cl)][2Nal]-NH2)
20 to 50 nM	–	–	CC(=O)NCC(=O)N[C@@H](Cc1ccccc1)C(=O)N[C@@H](CCCN)C(=O)N1CC[C@H]1C(=O)N[C@H](CC1CCCCC1)C(=O)N[C@@H](Cc1csc2ccccc12)C(=O)N[C@@H](Cc1ccccc1)C(N)=O [Compound 136, Ac-Gly-Phe-Orn-Aze-cha-Bta-Phe-NH2] (Ac-GF[Orn][Aze][dCha][Bta]F-NH2)
20 to 50 nM	–	–	CC(=O)N[C@@H](Cc1ccccc1)C(=O)N[C@@H](CCCN)C(=O)N1CCC[C@H]1C(=O)N[C@H](CC1CCCCC1)C(=O)N[C@@H](Cc1c[nH]c2ccccc12)C(=O)N[C@@H](Cc1cccc2ccccc12)C(N)=O [Compound 94, Ac-Phe-Orn-Pro-cha-Trp-1Ni—NH2] (Ac-F[Orn]P[dCha]W[1Nal]-NH2)
50 to 200 nM	–	–	CC(=O)N[C@@H](Cc1ccccc1)C(=O)N[C@@H](CCCN)C(=O)N1CCC[C@H]1C(=O)N[C@H](CCC(C)C)C(=O)N[C@@H](Cc1csc2ccccc12)C(=O)N[C@@H](CC1CCCCC1)C(N)=O [Compound 274, Ac-Phe-Orn-Pro-hle-Bta-Cha-NH2] (Ac-F[Orn]P[d(hLeu)][Bta][Cha]-NH2)
20 to 50 nM	–	–	CC(=O)N[C@@H](Cc1ccccc1)C(=O)N[C@@H](CCCN)C(=O)N[C@@H](CO)C(=O)N[C@H](CC1CCCCC1)C(=O)N[C@@H](Cc1csc2ccccc12)C(=O)N[C@@H](Cc1ccccc1)C(N)=O [Compound 309, Ac-Phe-Orn-Ser-cha-Bta-Phe-NH2] (Ac-F[Orn]S[dCha][Bta]F-NH2)
50 to 200 nM	–	–	CC(=O)N[C@@H](Cc1ccccc1)C(=O)N[C@H]1CCCNC(=O)[C@H](CCN)NC(=O)[C@H](Cc2c[nH]c3ccccc23)NC(=O)[C@@H](CC2CCCCC2)NC(=O)[C@@H]2CCCN2C1=O [compound 25] (Ac-F[Orn]P[dCha]W[Dab]; lactam 2-C)
50 to 200 nM	–	–	CCCC[C@@H]1NC(=O)[C@H](Cc2csc3ccccc23)NC(=O)[C@@H](CC2CCCCC2)NC(=O)[C@@H]2CCCN2C(=O)[C@@H](NCc2ccccc2)CCCNC1=O [Compound 315, Bzl-[Orn-Pro-cha-Bta-Nle]]
50 to 200 nM	–	–	CC(C)CC[C@H]1NC(=O)[C@H](CO)NC(=O)[C@@H](NC(=O)[C@@H](N)Cc2ccccc2)CCCNC(=O)[C@H](Cc2ccccc2)NC(=O)[C@H](Cc2ccc(F)cc2)NC1=O [Compound 389, H-Phe-[Orn-Ser-hle-Pff-Phe]] (H-F[Orn]S[d(hLeu)][Phe(4-F)]F; lactam 2-C)
200 to 2000 nM	–	–	CC(=O)N[C@@H](Cc1ccccc1)C(=O)N[C@H]1CCCNC(=O)[C@H](CCCCNC(N)=O)NC(=O)[C@H](Cc2c[nH]c3ccccc23)NC(=O)[C@@H](CC2CCCCC2)NC(=O)[C@@H]2CCCN2C1=O [compound 13] (Ac-F[Orn]P[dCha]W[hCit]; lactam 2-C)
50 to 200 nM	–	–	CC(=O)N[C@@H](Cc1ccccc1)C(=O)N[C@@H](CCCN)C(=O)N[C@@H](C)C(=O)N[C@H](CC1CCCCC1)C(=O)N[C@@H](Cc1c[nH]c2ccccc12)C(=O)N[C@@H](Cc1ccccc1)C(N)=O [Compound 79, Ac-Phe-Orn-Ala-cha-Trp-Phe-NH2] (Ac-F[Orn]A[dCha]WF-NH2)
50 to 200 nM	–	–	CCN(CC)CCC[C@H](NC(=O)[C@H](Cc1ccccc1)NC(C)=O)C(=O)N1CCC[C@H]1C(=O)N[C@H](CC1CCCCC1)C(=O)N[C@@H](Cc1c[nH]c2ccccc12)C(=O)N[C@@H](Cc1ccccc1)C(N)=O [Compound 143, Ac-Phe-Orn(Et2)-Pro-cha-Trp-Phe-NH2] (Ac-F[X5]P[dCha]WF-NH2)
50 to 200 nM	–	–	CC(=O)N[C@@H](Cc1ccccc1)C(=O)N[C@@H](CCCN)C(=O)N1CC[C@H]1C(=O)N[C@H](CC1CCCCC1)C(=O)N[C@@H](Cc1ccc(F)cc1)C(=O)N[C@@H](Cc1ccccc1)C(N)=O [Compound 99, Ac-Phe-Orn-Aze-cha-Pff-Phe-NH2] (Ac-F[Orn][Aze][dCha][Phe(4-F)]F-NH2)
50 to 200 nM	–	–	CC(=O)N[C@@H](Cc1ccccc1)C(=O)N[C@@H](CCCN)C(=O)N1CCC[C@H]1C(=O)N[C@H](CC1CCCCC1)C(=O)N[C@@H](Cc1csc2ccccc12)C(=O)N[C@@H](Cc1ccccn1)C(N)=O [Compound 258, Ac-Phe-Orn-Pro-cha-Bta-Opa-NH2] (Ac-F[Orn]P[dCha][Bta][2Pal]-NH2)
20 to 50 nM	–	–	CC(=O)N[C@@H](Cc1ccccc1)C(=O)N[C@@H](CCN)C(=O)N1CC[C@H]1C(=O)N[C@H](CC1CCCCC1)C(=O)N[C@@H](Cc1csc2ccccc12)C(=O)N[C@@H](Cc1ccccc1)C(N)=O [Compound 213, Ac-Phe-Dab-Aze-cha-Bta-Phe-NH2] (Ac-F[Dab][Aze][dCha][Bta]F-NH2)
50 to 200 nM	–	–	CC(=O)N[C@@H](Cc1ccccc1)C(=O)N[C@@H](CCCN)C(=O)N(C)[C@@H](CO)C(=O)N[C@H](CC1CCCCC1)C(=O)N[C@@H](Cc1csc2ccccc12)C(=O)N[C@@H](Cc1ccccc1)C(N)=O [Compound 247, Ac-Phe-Orn-NMS-cha-Bta-Phe-NH2] (Ac-F[Orn][NMeS][dCha][Bta]F-NH2)

Compound	IC50	inhibitory activity (in words)	inhibitory activity (in words) (listed as Ac-Phe-[Orn-Pro-cha-Trp-Ebd])
CC(=O)N[C@@H](Cc1ccccc1)C(=O)N[C@H]1CCCNC(=O)[C@H](Cc2ccccc2)NC(=O)[C@H](Cc2c[nH]c3ccccc23)NC(=O)[C@@H](CC2CCCCC2)NC(=O)[C@@H]2C[C@@H](OC(C)=O)CN2C1=O [Compound 176, Ac-Phe-[Orn-HyA-cha-Trp-Phe]] (Ac-F[Orn][Hyp](Ac)[dCha]WF; lactam 2-C)	50 to 200 nM	–	–
CC(=O)N[C@@H](Cc1ccccc1)C(=O)N[C@@H](CCCN)C(=O)N1CCC[C@H]1C(=O)N[C@H](CCC(C)C)C(=O)N[C@@H](Cc1csc2ccccc12)C(=O)N[C@@H](Cc1ccc2ccccc2c1)C(N)=O [Compound 271, Ac-Phe-Orn-Pro-hle-Bta-2Ni—NH2] (Ac-F[Orn]P[d(hLeu)][Bta][2Nal]-NH2)	50 to 200 nM	–	–
CC(=O)N[C@@H](Cc1ccccc1F)C(=O)N[C@@H](CCCN)C(=O)N1CCC[C@H]1C(=O)N[C@H](CCC(C)C)C(=O)N[C@@H](Cc1csc2ccccc12)C(=O)N[C@@H](Cc1ccccc1)C(N)=O [Compound 167, Ac-Off-Orn-Pro-hle-Bta-Phe-NH2] (Ac-[Phe(2-F)][Orn]P[d(hLeu)][Bta]F-NH2)	20 to 50 nM	–	–
CCCCOC(=O)N[C@@H](Cc1ccccc1)C(=O)N[C@@H](CCCN)C(=O)N1CCC[C@H]1C(=O)N[C@H](CC1CCCCC1)C(=O)N[C@@H](Cc1c[nH]c2ccccc12)C(=O)N[C@@H](Cc1ccccc1)C(N)=O [Compound 86, Bu-O—CO-Phe-Orn-Pro-cha-Trp-Phe-NH2] (Butoxycarbonyl-F[Orn]P[dCha]WF-NH2)	200 to 2000 nM	–	–
CCCC[C@@H]1NC(=O)[C@H](Cc2c[nH]c3ccccc23)NC(=O)[C@@H](CCC(C)C)NC(=O)[C@@H]2C[C@@H](O)CN2C(=O)[C@@H](NC(=O)[C@@H](N)Cc2ccccc2)CCCNC1=O [Compound 369, H-Phe-[Orn-Hyp-hle-Trp-Nle]] (H-F[Orn][Hyp][d(hLeu)]W[Nle]; lactam 2-C)	20 to 50 nM	–	–
N[C@@H](Cc1ccccc1)C(=O)N[C@H]1CCCNC(=O)[C@H](Cc2ccccc2)NC(=O)[C@H](Cc2c[nH]c3ccccc23)NC(=O)[C@@H](CC2CCCCC2)NC(=O)[C@@H]2C[C@@H](O)CN2C1=O [Compound 357, H-Phe-[Orn-Hyp-cha-Trp-Phe]] (H-F[Orn][Hyp][dCha]WF; lactam 2-C)	20 to 50 nM	–	–
CC(=O)N[C@@H](Cc1ccccc1)C(=O)N[C@@H](CCCN)C(=O)N1CCC[C@H]1C(=O)N[C@H](CSC(C)(C)C)C(=O)N[C@@H](Cc1ccc(Cl)c(Cl)c1)C(=O)N[C@@H](Cc1ccccc1)C(N)=O [Compound 264, Ac-Phe-Orn-Pro-ctb-Eaa-Phe-NH2] (Ac-F[Orn]P[dC](tBu)[Phe(3,4-Cl2)]F-NH2)	20 to 50 nM	–	–
